# Laboratory results published in ChEMBL document CHEMBL1156803, “Novel 3-arylideneindolin-2-ones as inhibitors of NAD+ -dependent histone deacetylases (sirtuins)” (J Med Chem, 2010).
# The source made the active and inactive calls. No cut-off for these calls is given here.
# How the values were obtained:
# [1] = biological target: T1, NAD-dependent protein deacetylase sirtuin-1 (Homo sapiens) (UniProt Q96EB6); test: Inhibition of human recombinant N-terminally GST-tagged SIRT1 at 50 uM after 4 hrs in presence of NAD+ by fluorescent deacetylase assay
# T1 sequence (whole entry): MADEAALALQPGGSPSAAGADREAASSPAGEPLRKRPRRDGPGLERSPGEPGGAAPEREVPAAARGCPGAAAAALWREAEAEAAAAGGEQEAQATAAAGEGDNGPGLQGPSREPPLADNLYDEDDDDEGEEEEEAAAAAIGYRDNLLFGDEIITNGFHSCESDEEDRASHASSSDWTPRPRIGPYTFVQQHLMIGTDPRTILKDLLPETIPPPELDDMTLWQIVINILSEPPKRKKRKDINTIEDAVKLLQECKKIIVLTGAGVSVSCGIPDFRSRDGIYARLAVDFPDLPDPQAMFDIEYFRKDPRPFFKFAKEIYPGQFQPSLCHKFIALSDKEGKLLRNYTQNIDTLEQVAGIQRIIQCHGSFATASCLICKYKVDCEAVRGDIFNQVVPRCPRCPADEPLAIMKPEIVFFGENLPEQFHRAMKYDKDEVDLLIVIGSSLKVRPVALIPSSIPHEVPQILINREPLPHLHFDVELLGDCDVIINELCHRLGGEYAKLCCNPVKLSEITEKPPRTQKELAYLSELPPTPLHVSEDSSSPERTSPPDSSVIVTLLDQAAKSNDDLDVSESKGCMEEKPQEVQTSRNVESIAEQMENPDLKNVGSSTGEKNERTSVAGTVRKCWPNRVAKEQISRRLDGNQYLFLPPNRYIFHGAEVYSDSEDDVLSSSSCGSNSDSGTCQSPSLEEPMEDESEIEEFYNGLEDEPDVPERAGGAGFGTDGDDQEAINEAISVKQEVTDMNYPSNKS
# [2] = biological target: T2, NAD-dependent protein deacetylase sirtuin-2 (Homo sapiens) (UniProt Q8IXJ6); test: Inhibition of human recombinant N-terminally 6X-His-tagged SIRT2 at 50 uM after 4 hrs in presence of NAD+ by fluorescent deacetylase assay
# T2 sequence (whole entry): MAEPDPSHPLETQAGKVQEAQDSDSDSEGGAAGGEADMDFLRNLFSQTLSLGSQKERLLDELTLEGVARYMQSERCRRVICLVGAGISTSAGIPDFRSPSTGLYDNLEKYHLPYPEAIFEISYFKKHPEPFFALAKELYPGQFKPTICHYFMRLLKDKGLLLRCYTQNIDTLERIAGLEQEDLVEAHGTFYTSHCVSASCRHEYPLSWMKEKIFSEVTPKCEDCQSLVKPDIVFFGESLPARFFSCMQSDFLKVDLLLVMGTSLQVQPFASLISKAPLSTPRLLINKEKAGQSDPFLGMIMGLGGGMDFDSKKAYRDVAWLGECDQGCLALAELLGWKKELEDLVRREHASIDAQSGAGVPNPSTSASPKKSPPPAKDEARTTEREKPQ
# [3] = biological target: T3, NAD-dependent protein deacetylase sirtuin-3, mitochondrial (Homo sapiens) (UniProt Q9NTG7); test: Inhibition of human recombinant N-terminally 6X-His-tagged SIRT3 at 50 uM after 4 hrs in presence of NAD+ by fluorescent deacetylase assay
# T3 sequence (whole entry): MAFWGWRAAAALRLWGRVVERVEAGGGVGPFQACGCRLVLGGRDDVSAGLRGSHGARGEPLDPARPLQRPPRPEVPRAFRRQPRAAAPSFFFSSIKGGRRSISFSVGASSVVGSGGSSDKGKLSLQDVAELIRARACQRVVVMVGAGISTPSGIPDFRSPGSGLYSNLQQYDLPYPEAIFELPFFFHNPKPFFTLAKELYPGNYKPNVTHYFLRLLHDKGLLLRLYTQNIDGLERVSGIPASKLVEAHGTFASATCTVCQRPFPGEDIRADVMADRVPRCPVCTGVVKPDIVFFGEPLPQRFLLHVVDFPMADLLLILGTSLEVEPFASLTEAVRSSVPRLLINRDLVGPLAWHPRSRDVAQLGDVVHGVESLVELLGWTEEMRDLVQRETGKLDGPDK
# [4] = biological target: T2, NAD-dependent protein deacetylase sirtuin-2 (Homo sapiens); test: Inhibition of SIRT2 in human MCF7 cells assessed as tubulin hyperacetylation at 0.1 uM after 16 hrs by Western blot; type: cell-based
# [5] = biological target: T2, NAD-dependent protein deacetylase sirtuin-2 (Homo sapiens); test: Inhibition of SIRT2 in human MCF7 cells assessed as tubulin hyperacetylation at 10 uM after 16 hrs by Western blot; type: cell-based
# [6] = biological target: T4, NAD-dependent protein deacetylase sirtuin-2 (Homo sapiens, UniProt Q8IXJ6); test: Inhibition of human recombinant N-terminally 6X-His-tagged SIRT2 after 4 hrs in presence of NAD+ by fluorescent deacetylase assay
# T4 sequence (Q8IXJ6 whole entry): T2 sequence (whole entry)
# HepG2 = test: Toxicity in human HepG2 cells after 6 hrs; type: cell-based; details: hepg2, 6 h
# [7] = biological target: T5, NAD-dependent protein deacetylase sirtuin-1 (Homo sapiens, UniProt Q96EB6); test: Inhibition of human recombinant N-terminally GST-tagged SIRT1 after 4 hrs in presence of NAD+ by fluorescent deacetylase assay
# T5 sequence (Q96EB6 whole entry): T1 sequence (whole entry)
# [8] = biological target: T2, NAD-dependent protein deacetylase sirtuin-2 (Homo sapiens); test: Inhibition of SIRT2 in human HepG2 cells assessed as alpha-tubulin hyperacetylation after 6 hrs by ELISA; type: cell-based
SMILES,inhibition [1] [%],inhibition [2] [%],inhibition [3] [%],also measured
O=C1Nc2c(ccc(Cl)c2Cl)/C1=C\c1ccncc1,19.6,16.5,< 10,
CC(/C=C/C(=O)NO)=C\[C@@H](C)C(=O)c1ccc(N(C)C)cc1,,,,Activity [4]: Active
O=C1Nc2c(ccc(Cl)c2Cl)/C1=C\c1ccccn1,22.7,20.6,< 10,
O=C1Nc2c(ccc(Cl)c2Cl)/C1=C/c1cc(C(F)(F)F)cc(C(F)(F)F)c1,19.8,,< 10,
Cc1cc(C)c(/C=C2\C(=O)Nc3c2ccc(Cl)c3Cl)[nH]1,19.9,,< 10,
CN(C)c1ccc(/C=C2\C(=O)Nc3c2ccc(Cl)c3Cl)cc1,20.7,< 10,< 10,
Cn1cc(C2=C(c3cn(CCCSC(=N)N)c4ccccc34)C(=O)NC2=O)c2ccccc21,,,,Activity [5]: Active
O=C1Nc2c(ccc(Cl)c2Cl)/C1=C/c1cc(Br)c(O)c(Br)c1,,,,IC50 [6]: 28.4 µM; Activity (HepG2): Non-toxic; IC50 [7]: 40.6 µM; Activity [8]: Active
O=C1Nc2c(ccc(Cl)c2Cl)/C1=C/c1ccc([N+](=O)[O-])cc1,30.2,,< 10,IC50 [6]: 10.4 µM
Cn1c2c(Cl)c(Cl)ccc2c2cc[nH]c(=O)c21 [BAUERINE C],< 10,,< 10,
O=C1Nc2c(ccc(Cl)c2Cl)/C1=C/c1ccc(F)cc1,24.4,,< 10,Activity (HepG2): Non-toxic; Activity [8]: inactive
COc1cc(/C=C2\C(=O)Nc3c2ccc(Cl)c3Cl)cc(OC)c1OC,< 10,< 10,< 10,
CCN(CC)CCNC(=O)c1c(C)[nH]c(/C=C2\C(=O)Nc3ccc(F)cc32)c1C [SUNITINIB],< 10,,26.4,IC50 [6]: 123 µM
O=C1Nc2c(ccc(Cl)c2Cl)/C1=C/c1ccc(C(F)(F)F)cc1,45.4,18.3,< 10,
O=C1Nc2c(ccc(Cl)c2Cl)/C1=C/c1ccc(O)cc1,< 10,34.7,13.5,
